In patent publication US11713323B2, “Crystalline forms of therapeutic compounds and uses thereof” (Kala Pharmaceuticals, Inc., priority 2013, dated 2023):

Assays:
Format in all cases: physicochemical
[1] = Stability of MPP suspensions of crystalline forms on storage (XRPD profile)
Description: To characterize the stability of the resulting crystalline forms of Compound 3, changes in XRPD profiles following long-term storage were determined. An MPP suspension comprising of crystalline Form A was stored at room temperature for 7 weeks, while a second MPP suspension also comprising of crystalline Form A was stored at room temperature for 7 weeks followed by an additional 1.5 weeks of agitation. […] To further test the potential for longer term storage, two additional MPP samples comprising of Form A, which were formulated at pH 5.8 and pH 7.4 by incorporating different buffers in the milling slurry, were stored at room temperature for 8 months and then analyzed by XRPD.
To confirm long-term stability, an MPP suspension of crystalline Form B was stored for 7 weeks at room temperature and then was characterized by XRPD. The results of that analysis are shown in FIG. 5, which provides the XRPD pattern of the original crystalline Form B material in the bottom trace and the XRPD pattern of the material after seven weeks of storage in the top trace.

[2] = Crystal form stability during wet-milling (XRPD); conditions: 5% in 5% F127/DPBS, wet-milled 2 days
Description: In accordance to Example 3, mucus-penetrating particles comprising of Crystalline Form B was prepared by wet-milling neat Crystalline Form B. A slurry containing 5% neat crystalline From B of Compound 3 and 5% F127 in DPBS (Dulbecco's Phosphate Buffered Saline) was added to an equal bulk volume of 1-mm ceria-stabilized zirconium oxide beads in a glass vial (e.g. 0.5 mL of slurry for 0.5 mL of beads). A magnetic stir bar was used to agitate the beads, stirring at approximately 500 rpm. The sample was milled for 2 days. Nanoparticles which were approximately 200 nm in diameter (z-averaged), as measured by DLS, were generated.

[3] = Competition between crystalline Forms A and B in mixed nanoparticle suspensions (XRPD); conditions: competition with crystalline Form A
Description: A suspension of nanoparticles of crystalline Form A was generated as described via wet milling the amorphous material. A suspension of nanoparticles of Form B was generated via wet milling of neat Form B crystals as described. The two suspensions were mixed in 1:1 ratio and incubated at room temperature. After 11 days, an XRPD analysis was performed, which estimated that the ratio of Forms A and B was unchanged in the mixture (not shown). A fraction of the mixture was then stirred using a magnetic stir bar to provide an increased energy input in order to accelerate the outcome of the competition experiment.

Row | SMILES | physical stability during storage (XRPD pattern) ([1]; MPP suspension stored 7 weeks at room temperature) | crystal form stability during milling (XRPD) [2] | relative stability under the current formulation conditions [3] | shelf stable as suspensions (XRPD profile of crystalline Form A retained) ([1]; MPP samples formulated at pH 5.8 and pH 7.4, room temperature) | shelf stable in solution (XRPD profile of crystalline Form A retained) ([1]; MPP suspension, room temperature, second sample with additional 1.5 weeks of agitation)
1 | COc1cc2c(Oc3ccc4[nH]c(C)cc4c3F)ncnc2cc1OCCCN1CCC2(CC1)COC2 [crystalline Form B, 7-(3-(4-(4-fluoro-2-methyl-1H-indol-5-yloxy)-6-methoxyquinazolin-7-yloxy)propyl)-2-oxa-7-azaspiro[3.5]nonane] | physically stable during storage | remained stable during milling | more stable |  | 
2 | COc1cc2c(Oc3ccc4[nH]c(C)cc4c3F)ncnc2cc1OCCCN1CCC2(CC1)COC2 [crystalline Form A, 7-(3-(4-(4-fluoro-2-methyl-1H-indol-5-yloxy)-6-methoxyquinazolin-7-yloxy)propyl)-2-oxa-7-azaspiro[3.5] nonane] |  |  |  | at least 8 months | at least 7 weeks
